Data from patent US9993478B2, “1-pyrazolyl-3-(4-((2-anilinopyrimidin-4-yl) oxy) napththalen-1-yl) ureas as P38 MAP knase inhibitors” (Respivert Ltd., priority 2011, dated 2018).

Test system: d-U937 cells
Assay: Cell viability: MTT assay
Type: cell-based, human
Conditions: 1 μg/mL
Method: Differentiated U937 cells were pre-incubated with each test compound (final concentration 1 μg/mL or 10 μg/mL in 200 μL media indicated below) under two protocols: the first for 4 hr in 5% FCS RPMI1640 media and the second in 10% FCS RPMI1640 media for 24 h. The supernatant was replaced with new media (200 μL) and MTT stock solution (10 μL, 5 mg/mL) was added to each well. After incubation for 1 hr the media were removed, DMSO (200 μL) was added to each well and the plates were shaken lightly for 1 hr prior to reading the absorbance at 550 nm. The percentage loss of cell viability was calculated for each well relative to vehicle (0.5% DMSO) treatment. Consequently an apparent increase in cell viability for drug treatment relative to vehicle is tabulated as a negative percentage.

Structure (SMILES) | MTT Assay Cell viability at time point in d-U937 Cells 4 h | MTT Assay Cell viability at time point in d-U937 Cells 24 h
Cc1ccc(-n2nc(C(C)(C)C)cc2NC(=O)Nc2ccc(Oc3ccnc(Nc4ccc(O)cc4F)n3)c3ccccc23)cc1 [Example 30, 1-(3-(tert-butyl)-1-(p-tolyl)-1H-pyrazol-5-yl)-3-(4-((2-((2-fluoro-4-hydroxyphenyl)amino)pyrimidin-4-yl)oxy)naphthalen-1-yl)urea] | −ve (−ve and +ve indicate the value is below and above respectively, the no significant effect threshold defined as 30% inhibition at 1 μg/mL at the time point indicated) | −ve (−ve and +ve indicate the value is below and above respectively, the no significant effect threshold defined as 30% inhibition at 1 μg/mL at the time point indicated)
Cc1ccc(-n2nc(C(C)(C)C)cc2NC(=O)Nc2ccc(Oc3ccnc(Nc4ccc(O)cc4O)n3)c3ccccc23)cc1 [Example 32, 1-(3-(tert-butyl)-1-(p-tolyl)-1H-pyrazol-5-yl)-3-(4-((2-((2,4-dihydroxyphenyl)amino)pyrimidin-4-yl)oxy)naphthalen-1-yl)urea] | −ve (−ve and +ve indicate the value is below and above respectively, the no significant effect threshold defined as 30% inhibition at 1 μg/mL at the time point indicated) | −ve (−ve and +ve indicate the value is below and above respectively, the no significant effect threshold defined as 30% inhibition at 1 μg/mL at the time point indicated)
Cc1ccc(-n2nc(C(C)(C)C)cc2NC(=O)Nc2ccc(Oc3ccnc(Nc4ccccc4C(C)C)n3)c3ccccc23)cc1 [Example 20, 1-(3-(tert-butyl)-1-(p-tolyl)-1H-pyrazol-5-yl)-3-(4-((2-((2-isopropylphenyl)amino)pyrimidin-4-yl)oxy)naphthalen-1-yl)urea] | −ve (−ve and +ve indicate the value is below and above respectively, the no significant effect threshold defined as 30% inhibition at 1 μg/mL at the time point indicated) | −ve (−ve and +ve indicate the value is below and above respectively, the no significant effect threshold defined as 30% inhibition at 1 μg/mL at the time point indicated)
COc1cccc(Nc2nccc(Oc3ccc(NC(=O)Nc4cc(C(C)(C)C)nn4-c4ccc(C)cc4)c4ccccc34)n2)c1 [Example 14, 1-(3-(tert-butyl)-1-(p-tolyl)-1H-pyrazol-5-yl)-3-(4-((2-((3-methoxyphenyl)amino)pyrimidin-4-yl)oxy)naphthalen-1-yl)urea] | −ve (−ve and +ve indicate the value is below and above respectively, the no significant effect threshold defined as 30% inhibition at 1 μg/mL at the time point indicated) | −ve (−ve and +ve indicate the value is below and above respectively, the no significant effect threshold defined as 30% inhibition at 1 μg/mL at the time point indicated)
Cc1ccc(-n2nc(C(C)(C)C)cc2NC(=O)Nc2ccc(Oc3ccnc(Nc4ccc(O)cc4Cl)n3)c3ccccc23)cc1 [Example 31, 1-(3-(tert-butyl)-1-(p-tolyl)-1H-pyrazol-5-yl)-3-(4-((2-((2-chloro-4-hydroxyphenyl)amino)pyrimidin-4-yl)oxy)naphthalen-1-yl)urea] | −ve (−ve and +ve indicate the value is below and above respectively, the no significant effect threshold defined as 30% inhibition at 1 μg/mL at the time point indicated) | −ve (−ve and +ve indicate the value is below and above respectively, the no significant effect threshold defined as 30% inhibition at 1 μg/mL at the time point indicated)
Cc1ccc(-n2nc(C(C)(C)C)cc2NC(=O)Nc2ccc(Oc3ccnc(Nc4ccccc4Cl)n3)c3ccccc23)cc1 [Example 6, 1-(3-(tert-butyl)-1-(p-tolyl)-1H-pyrazol-5-yl)-3-(4-((2-((2-chlorophenyl)amino)pyrimidin-4-yl)oxy)naphthalen-1-yl)urea] | −ve (−ve and +ve indicate the value is below and above respectively, the no significant effect threshold defined as 30% inhibition at 1 μg/mL at the time point indicated) | −ve (−ve and +ve indicate the value is below and above respectively, the no significant effect threshold defined as 30% inhibition at 1 μg/mL at the time point indicated)
Cc1ccc(-n2nc(C(C)(C)C)cc2NC(=O)Nc2ccc(Oc3ccnc(Nc4ccccc4F)n3)c3ccccc23)cc1 [Example 4, 1-(3-(tert-butyl)-1-(p-tolyl)-1H-pyrazol-5-yl)-3-(4-((2-((2-fluorophenyl)amino)pyrimidin-4-yl)oxy)naphthalen-1-yl)urea] | −ve (−ve and +ve indicate the value is below and above respectively, the no significant effect threshold defined as 30% inhibition at 1 μg/mL at the time point indicated) | −ve (−ve and +ve indicate the value is below and above respectively, the no significant effect threshold defined as 30% inhibition at 1 μg/mL at the time point indicated)
Cc1ccc(-n2nc(C(C)(C)C)cc2NC(=O)Nc2ccc(Oc3ccnc(Nc4ccc(O)cc4)n3)c3ccccc23)cc1 [Example 9, 1-(3-(tert-butyl)-1-(p-tolyl)-1H-pyrazol-5-yl)-3-(4-((2-((4-hydroxyphenyl)amino)pyrimidin-4-yl)oxy)naphthalen-1-yl)urea] | −ve (−ve and +ve indicate the value is below and above respectively, the no significant effect threshold defined as 30% inhibition at 1 μg/mL at the time point indicated) | −ve (−ve and +ve indicate the value is below and above respectively, the no significant effect threshold defined as 30% inhibition at 1 μg/mL at the time point indicated)
COc1ccc(Nc2nccc(Oc3ccc(NC(=O)Nc4cc(C(C)(C)C)nn4-c4ccc(C)cc4)c4ccccc34)n2)c(OC)c1 [Example 8, 1-(3-(tert-butyl)-1-(p-tolyl)-1H-pyrazol-5-yl)-3-(4-((2-((2,4-dimethoxyphenyl)amino)pyrimidin-4-yl)oxy)naphthalen-1-yl)urea] | −ve (−ve and +ve indicate the value is below and above respectively, the no significant effect threshold defined as 30% inhibition at 1 μg/mL at the time point indicated) | −ve (−ve and +ve indicate the value is below and above respectively, the no significant effect threshold defined as 30% inhibition at 1 μg/mL at the time point indicated)
CCOc1ccc(Nc2nccc(Oc3ccc(NC(=O)Nc4cc(C(C)(C)C)nn4-c4ccc(C)cc4)c4ccccc34)n2)cc1 [Example 22, 1-(3-(tert-butyl)-1-(p-tolyl)-1H-pyrazol-5-yl)-3-(4-((2-((4-ethoxyphenyl)amino)pyrimidin-4-yl)oxy)naphthalen-1-yl)urea] | −ve (−ve and +ve indicate the value is below and above respectively, the no significant effect threshold defined as 30% inhibition at 1 μg/mL at the time point indicated) | −ve (−ve and +ve indicate the value is below and above respectively, the no significant effect threshold defined as 30% inhibition at 1 μg/mL at the time point indicated)
